Holding throughout (format): cell-based, human
The test system of one assay is BEL-7402 cells. The experiment in a line: MTT cytotoxicity assay, BEL-7402. The following applies: 48 h, read-out: IC50 toward BEL-7402. An excerpt:
(§1) The lung carcinoma cell line A549, the cervical cancer cell line HeLa, the esophageal cancer cell line Eca-109, and the human hepatocellular carcinoma cell line BEL-7402 were purchased from the cell bank of the Cell Institute of Sinica Academia Shanghai (Shanghai, China). The gastric adenocarcinoma cell line SGC-7901, the hepatocellular carcinoma cell line HepG2, and the mouse embryonic fibroblast cell line NIH 3T3 were obtained from the Experimental Animal Center of Sun Yat-Sen University (Guangzhou, China). The BEL-7402 and SGC-7901 cell lines were cultured in Roswell Park Memorial Institute Medium (RPMI-1640); and A549, Eca-109, HepG2, and NIH 3T3 cells were grown in Dulbecco’s Modified Eagle’s Medium (DMEM), including 10% fetal bovine serum (FBS), 100 units mL^−1 penicillin/streptomycin mixture, and 2.0 g/L of NaHCO3. Cell passage experiments were performed with trypsin every 2 days to maintain exponential growth. All cells were cultured until they reached logarithmic growth phase, unless specifically noted.
(§2) Cell cytotoxicity following treatment with the iridium(III) complexes was detected by MTT assay. The cells were seeded into 96-well micro-assay culture plates (1 × 10^4 cells per well) and grown overnight in a 5% CO2 incubator at 37 °C. Then, the cell lines were treated with gradient concentrations of the complexes 1–3. After treatment for 48 h, MTT solution (5 mg mL^−1, […]) dissolved in phosphate buffer was added to each well and the cells were further cultured for 4 h. Upon completion of incubation, the solvent was removed and 100 µL/well of buffer containing dimethylformamide (50%) and sodium dodecyl sulfate (20%) was added to dissolve the produced formazan. The absorbance of each well was measured with a microplate reader at a wavelength of 490 nm. The IC50 values were determined from the plots of viability versus concentration used to treat the cells. Three independent experiments were performed to obtain the mean values.
In general terms: Tetrazolium dyes change colour on reduction, which living cells bring about.

In another assay the test system is SGC-7901 cells. Kind of assay: Mitochondrial membrane potential assay with JC-1. The following applies: 24 h; for Ratio of red/green JC-1 fluorescence intensity (R): substance alone: 4.0 µM 1, 15.0 µM 2, 15.0 µM 3, CCCP or NAC, control 12.03; for Ratio of red/green JC-1 fluorescence intensity (R), complex + NAC: 4.0 µM 1, 15.0 µM 2, 15.0 µM 3, in the presence of NAC. As to the method:
The SGC-7901 cells were seeded into a 12-well plate at a density of 1.5 × 10^5 cells per well and incubated to attach at 37 °C in 5% CO2. Overnight, the cells were treated with complexes 1–3 for 24 h. CCCP was used as a positive control. Then, the cells were incubated with JC-1 for 30 min at room temperature, after which the remaining dye was washed away with PBS. The samples were then observed under the ImageXpress Micro XLS system and flow cytometry was employed to quantify the fluorescence intensity.

Another assay has as its system HepG2 cells. Kind of assay: MTT cytotoxicity assay, HepG2. The following applies: 48 h, read-out: IC50 toward HepG2.
Text: as §1, §2

The term IC50 denotes the point on the concentration scale where inhibition reaches its midpoint.

On to `F[P-](F)(F)(F)(F)F.Nc1c(N)c2cccnc2c2ncccc12.[Ir+3].[c-]1ccccc1-c1ccccn1.[c-]1ccccc1-c1ccccn1` [Complex 3, [Ir(Hppy)2(DAP)]PF6], for which the IC50 was determined as 68.8 ± 4.6 µM in the assay on BEL-7402 cells and 95 ± 9.1 µM in the assay with HepG2 cells. For the same compound, in the assay on SGC-7901 cells, the “Ratio of red/green JC-1 fluorescence intensity (R)” value turned out to be 1.49.
With `F[P-](F)(F)(F)(F)F.Nc1c([N+](=O)[O-])c2cccnc2c2ncccc12.[Ir+3].[c-]1ccccc1-c1ccccn1.[c-]1ccccc1-c1ccccn1` [Complex 2, [Ir(Hppy)2(NAP)]PF6], the concentration for half-maximal inhibition (IC50) in the assay with BEL-7402 cells is 68.7 ± 1.5 µM. Moreover, in the assay with SGC-7901 cells, the “Ratio of red/green JC-1 fluorescence intensity (R), complex + NAC” value is 17.99 and the “Ratio of red/green JC-1 fluorescence intensity (R)” value worked out at 7.12. Moreover, the IC50 in the assay with HepG2 cells was found to be 99 ± 14.7 µM.
For `F[P-](F)(F)(F)(F)F.O=[N+]([O-])c1cc2ccc[n+]3c2c2c1ccc[n+]2[Ir-5]312([c]3ccccc3-c3cccc[n+]31)[c]1ccccc1-c1cccc[n+]12` [Complex 1, [Ir(Hppy)2(NP)]PF6] the same measures were 23 ± 0.8 µM, 1.86, 0.43 and 30.9 ± 0.7 µM.

The values are drawn from publication PMC6749586, “Design, Synthesis, and Anticancer Effect Studies of Iridium(III) Polypyridyl Complexes against SGC-7901 Cells” (Molecules, 2019).
